Patent US20080207617A1, “Quinoline Derivatives and Quinazoline Derivatives Inhibiting Autophosphrylation of Flt3 and Medicinal Compositions Containing the Same” (KIRIN BEER KABUSHIKI KAISHA, priority 2002, published 2008)
Structures can show the parent of a compound that is named as a salt.

What was measured:
MOLM13 = assay: Cell growth inhibitory activities on cultured human leukemia cells MOLM-13 (WST-1); assay type: cell-based; conditions: Homo sapiens, MOLM-13, 72 h, 3 days culture
MV4-11 = assay: Cell growth inhibitory test MV4-11 (WST-1); assay type: cell-based, human; conditions: Homo sapiens, MV4-11, 72 h, MV4-11 cells, 3 days culture
Outline: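 MV4-11 leukemia cells (3×10^3/well, DMEM + 10% FCS) were cultured 3 days with compound in DMSO at 5% CO2. Growth read by WST-1 absorbance at 450 nm (ref 650 nm), normalized to untreated (100%) and cell-free (0%) wells; IC50 from multiple concentrations.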

FLT3 = biological target: T1, FLT3 (Homo sapiens, UniProt P36888); assay: Inhibitory activity against FLT3 autophosphorylation using ELISA method; assay type: cell-based; conditions: MV4-11 cells, 1 hr with compound, read-out: IC50 of FLT3-phosphorylation
T1 sequence (P36888 with tags, fused parts or gaps INS600HVDFREYEYD): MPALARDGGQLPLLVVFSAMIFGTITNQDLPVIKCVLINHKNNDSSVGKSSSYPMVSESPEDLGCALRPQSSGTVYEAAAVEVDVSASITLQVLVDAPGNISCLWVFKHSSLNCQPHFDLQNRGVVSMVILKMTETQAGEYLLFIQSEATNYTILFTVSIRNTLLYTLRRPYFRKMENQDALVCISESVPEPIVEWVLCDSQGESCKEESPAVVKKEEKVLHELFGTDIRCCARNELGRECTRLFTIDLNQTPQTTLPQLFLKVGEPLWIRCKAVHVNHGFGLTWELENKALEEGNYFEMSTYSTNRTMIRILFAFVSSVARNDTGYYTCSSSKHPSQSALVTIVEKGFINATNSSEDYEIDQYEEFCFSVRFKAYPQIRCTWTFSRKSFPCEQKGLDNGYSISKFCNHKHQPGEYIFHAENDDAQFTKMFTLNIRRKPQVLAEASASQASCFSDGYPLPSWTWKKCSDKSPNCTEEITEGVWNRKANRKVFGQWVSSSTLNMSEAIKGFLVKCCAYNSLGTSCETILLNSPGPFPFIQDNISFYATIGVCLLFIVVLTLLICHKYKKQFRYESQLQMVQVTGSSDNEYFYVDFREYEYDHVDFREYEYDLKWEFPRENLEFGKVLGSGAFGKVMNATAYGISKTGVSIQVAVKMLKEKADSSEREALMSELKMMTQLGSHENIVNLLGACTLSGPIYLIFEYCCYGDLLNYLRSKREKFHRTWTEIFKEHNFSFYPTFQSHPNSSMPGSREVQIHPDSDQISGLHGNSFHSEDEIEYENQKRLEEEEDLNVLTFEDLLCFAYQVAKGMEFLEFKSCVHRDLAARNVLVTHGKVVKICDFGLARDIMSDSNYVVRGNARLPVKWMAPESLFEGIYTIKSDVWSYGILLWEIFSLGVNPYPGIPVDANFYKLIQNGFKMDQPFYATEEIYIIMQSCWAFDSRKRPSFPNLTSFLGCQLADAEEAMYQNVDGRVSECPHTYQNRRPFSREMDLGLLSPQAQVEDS
Experimental: Pharmacological Test Example 1
Measurement of Inhibitory Activity Against FLT3 Autophosphorylation Using ELISA Method
Human leukemia cells MV4-11 (ATCC number: CRL-9591) were cultured in an IMDM medium containing 10% fetal calf serum (purchased from SIGMA) within a 5% carbon dioxide incubator until 50 to 90% confluent. The harvested cells were seeded into 96-wells, plates, containing an IMDM medium containing 0.1% fetal calf serum, in a 96-well multiscreen plate in an amount of 5.0×10^5 per well, a solution of the test compound in dimethyl sulfoxide was added to each well, and the cultivation was continued at 37° C. for one hr. The medium was removed, followed by washing with phosphate buffered saline. A lysis buffer (60 μl) (20 mM HEPES (pH 7.4), 150 mM NaCl, 0.2% Triton X-100, 10% glycerol, 5 mM sodium orthovanadylate, 5 mM disodium ethylenediaminetetraacetate, and 2 mM Na4P2O7) was then added thereto. The mixture was shaken at 4° C. for 2 hr to prepare a cell extracts.
Separately, phosphate buffered saline (50 μl, pH 7.4) containing 5 μg/ml of anti-phospho-tyrosine antibody (PY20; purchased from Transduction Laboratories) was added to a 96-well microplate for ELISA (Maxisorp; purchased from NUNC), followed by standing at 4° C. overnight to form a solid phase on the wells. After washing of the plate, 250 μl of a blocking solution was added, followed by standing at room temperature for 3 hr to perform blocking. After washing, the whole quantity of the cell extract was transferred to the wells, and the plate was then allowed to stand at 4° C. overnight. After washing, an anti-FLT3 antibody (Flt3/Flk2 (C-20), purchased from Santa Cruz Biotechnology) was allowed to react at room temperature for 2 hr, and, after washing, a peroxidase-labeled anti-rabbit Ig antibody (purchased from Amersham) was allowed to react at room temperature for one hr. After washing, a chromophoric substrate for peroxidase (purchased from Sumitomo Bakelite Co., Ltd.) was added thereto to initiate a reaction. After a suitable level of color development, a reaction termination solution was added to stop the reaction, and the absorbance at 450 nm was measured with a microplate reader. The FLT3-phosphorylation activity for each well was determined by presuming the absorbance without the addition of the medicament to be 100% FLT3-phosphorylation activity and the absorbance with the addition of a large excess of a positive control (Compound 1, 10 μM) to be 0% FLT3-phosphorylation activity. The concentration of the test compound was varied on several levels, the FLT3-phosphorylation inhibitory activity was determined for each case, and the concentration of the test compound necessary for inhibiting 50% of FLT3-phosphorylation (IC50) was calculated.

IC50 (MOLM13) [nM] | IC50 (MV4-11) [nM] | IC50 (FLT3) [nM] | SMILES
3 | 2 | 7 | COc1cc2nccc(Oc3ccc(NC(=O)NCCC(C)(C)C)cc3C)c2cc1OC [Compound 3, 1-[4-(6,7-Dimethoxy-quinolin-4-yloxy)-3-methyl-phenyl]-3-(3,3-dimethyl-butyl)-urea]
2 | 1 | 93 | COc1cc2c(Oc3ccc(NC(=O)NCCC(C)(C)C)cc3)ccnc2cc1OCCN1CCCCC1 [Compound 40, 1-{4-[6-Methoxy-7-(2-piperidin-1-yl-ethoxy)-quinolin-4-yloxy]-phenyl}-3-(3,3-dimethyl-butyl)-urea hydrochloride]
